Patent publication US10519152B2, “Compounds and their use in treating cancer” (AstraZeneca AB, priority 2017, dated 2019)

Key:
[1] = molecular target: T1, recombinant human Estrogen Receptor alpha ligand binding domain, residues 307-554 (ER alpha-LBD (GST)) (Homo sapiens, UniProt P03372); assay: ERα binding assay (LanthaScreen TR-FRET competition); conditions: TR-FRET competition with Fluormone ES2 tracer, 4 hours at room temperature; single experiment or average of two or more
T1 construct: made in house
T1 sequence (P03372 307-554): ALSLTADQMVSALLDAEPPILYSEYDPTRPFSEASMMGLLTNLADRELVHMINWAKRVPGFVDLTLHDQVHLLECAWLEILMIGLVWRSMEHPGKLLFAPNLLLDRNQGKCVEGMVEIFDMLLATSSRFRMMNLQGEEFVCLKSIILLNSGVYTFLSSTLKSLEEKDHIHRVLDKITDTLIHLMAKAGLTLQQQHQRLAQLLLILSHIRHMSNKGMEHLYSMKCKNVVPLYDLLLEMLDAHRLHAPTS

[2] = molecular target: T2, Estrogen Receptor (ERα) in MCF-7 human ductal carcinoma breast cell line (Homo sapiens, UniProt P03372); assay: MCF-7 ER degradation assay (cell based immuno-fluorescence); conditions: MCF-7 cells; for DC50: 18-22 hours incubation, 50% reduction of ERα expression, single experiment or average of two or more, read-out: MCF-7 ER degradation IC50; for ER degradation ≥ 90% at 0.3 μM: ER degradation by fulvestrant at 0.3 μM is defined as 100%
T2 construct: endogenous in cells; host or cells: MCF-7
T2 sequence (P03372 1-595): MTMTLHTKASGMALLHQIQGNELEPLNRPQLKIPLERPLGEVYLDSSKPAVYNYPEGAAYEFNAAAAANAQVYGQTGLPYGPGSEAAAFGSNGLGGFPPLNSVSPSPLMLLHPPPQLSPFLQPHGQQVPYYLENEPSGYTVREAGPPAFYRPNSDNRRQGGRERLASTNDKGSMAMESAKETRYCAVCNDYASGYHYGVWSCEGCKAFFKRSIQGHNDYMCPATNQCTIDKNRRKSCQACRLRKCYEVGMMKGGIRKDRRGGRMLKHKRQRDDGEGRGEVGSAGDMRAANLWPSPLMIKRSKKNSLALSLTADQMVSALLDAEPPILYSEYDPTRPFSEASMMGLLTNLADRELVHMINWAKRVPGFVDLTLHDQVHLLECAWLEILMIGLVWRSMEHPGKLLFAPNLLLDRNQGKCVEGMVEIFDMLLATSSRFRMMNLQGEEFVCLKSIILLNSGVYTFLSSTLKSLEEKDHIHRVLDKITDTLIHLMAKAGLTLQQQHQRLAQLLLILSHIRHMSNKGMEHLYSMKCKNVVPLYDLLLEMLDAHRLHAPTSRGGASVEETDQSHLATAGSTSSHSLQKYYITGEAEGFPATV
Summary of the method: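 MCF-7 human ductal carcinoma breast cells were seeded at 3.75×10^4 cells per mL (40 μL per well) in 384 well plates with phenol red free DMEM containing 2 mM L-Glutamine and 5% (v/v) Charcoal/Dextran treated foetal calf serum. After overnight culture, compounds were acoustically dispensed, incubated 18-22 hours, then cells were formaldehyde-fixed and immunostained for ERα.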

Compound `Cc1ncsc1-c1ccc(CNC(=O)[C@@H]2C[C@@H](O)CN2C(=O)[C@@H](NC(=O)CN2CCN(CCCCCOc3cc(F)c([C@@H]4c5[nH]c6ccccc6c5C[C@@H](C)N4CC(C)(C)F)c(F)c3)CC2)C(C)(C)C)cc1` [Example 2, (2S,4R)-1-((S)-2-(2-(4-(5-(3,5-Difluoro-4-((1R,3R)-2-(2-fluoro-2-methylpropyl)-3-methyl-2,3,4,9-tetrahydro-1H-pyrido[3,4-b]indol-1-yl)phenoxy)pentyl)piperazin-1-yl)acetamido)-3,3-dimethylbutanoyl)-4-hydroxy-N-(4-(4-methylthiazol-5-yl)benzyl)pyrrolidine-2-carboxamide] has an IC50 [1] of 0.6 nM and a DC50 [2] of 2.9 nM.

For `Cc1ncsc1-c1ccc(CNC(=O)[C@@H]2C[C@@H](O)CN2C(=O)[C@@H](NC(=O)COCCCc2cccc(COc3cc(F)c([C@@H]4c5[nH]c6ccccc6c5C[C@@H](C)N4CC(C)(C)F)c(F)c3)c2)C(C)(C)C)cc1` [Example 73, (2S,4R)-1-((S)-2-(2-(3-(3-((3,5-Difluoro-4-((1R,3R)-2-(2-fluoro-2-methylpropyl)-3-methyl-2,3,4,9-tetrahydro-1H-pyrido[3,4-b]indol-1-yl)phenoxy)methyl)phenyl)propoxy)acetamido)-3,3-dimethylbutanoyl)-4-hydroxy-N-(4-(4-methylthiazol-5-yl)benzyl)pyrrolidine-2-carboxamide], the IC50 [1] was 1 nM and the “ER degradation ≥ 90% at 0.3 μM” value [2] was “••”.

`Cc1ncsc1-c1ccc(CNC(=O)[C@@H]2C[C@@H](O)CN2C(=O)[C@@H](NC(=O)CCCNCCCCCCOc2cc(F)c([C@@H]3c4[nH]c5ccccc5c4C[C@@H](C)N3CC(C)(C)F)c(F)c2)C(C)(C)C)cc1` [Example 151, (2S,4R)-1-((S)-2-(4-((6-(3,5-Difluoro-4-((1R,3R)-2-(2-fluoro-2-methylpropyl)-3-methyl-2,3,4,9-tetrahydro-1H-pyrido[3,4-b]indol-1-yl)phenoxy)hexyl)amino)butanamido)-3,3-dimethylbutanoyl)-4-hydroxy-N-(4-(4-methylthiazol-5-yl)benzyl)pyrrolidine-2-carboxamide] was tested, and the IC50 [1] was 3.6 nM and the DC50 [2] was 54 nM.

`Cc1ncsc1-c1ccc(CNC(=O)[C@@H]2C[C@@H](O)CN2C(=O)[C@@H](NC(=O)CN(C)CCCCCOc2cc(F)c(C3c4[nH]c5ccccc5c4C[C@@H](C)N3CC(C)(C)F)c(F)c2)C(C)(C)C)cc1` (stereo partly drawn) [Example 90, (2S,4R)-1-((S)-2-(2-((5-(3,5-Difluoro-4-((1R,3R)-2-(2-fluoro-2-methylpropyl)-3-methyl-2,3,4,9-tetrahydro-1H-pyrido-[3,4-b]indol-1-yl)phenoxy)pentyl)(methyl)amino)acetamido)-3,3-dimethylbutanol)-4-hydroxy-N-(4-(4-methylthiazol-5-yl)benzyl)pyrrolidine-2-carboxamide] gave an IC50 [1] of 1.2 nM and a DC50 [2] of 102 nM.

In the case of `Cc1ncsc1-c1ccc(CNC(=O)[C@@H]2C[C@@H](O)CN2C(=O)[C@@H](NC(=O)COCCOCCOCCOc2cc(F)c([C@@H]3c4[nH]c5ccccc5c4C[C@@H](C)N3CC(C)(C)F)c(F)c2)C(C)(C)C)cc1` [Example 38, (2S,4R)-1-((S)-2-(tert-Butyl)-14-(3,5-difluoro-4-((1R,3R)-2-(2-fluoro-2-methylpropyl)-3-methyl-2,3,4,9-tetrahydro-1H-pyrido[3,4-b]indol-1-yl)phenoxy)-4-oxo-6,9,12-trioxa-3-azatetradecanoyl)-4-hydroxy-N-(4-(4-methylthiazol-5-yl)benzyl)pyrrolidine-2-carboxamide], the IC50 [1] is reported as 0.7 nM and the “ER degradation ≥ 90% at 0.3 μM” value [2] is reported as “••”.

`Cc1ncsc1-c1ccc(CNC(=O)[C@@H]2C[C@@H](O)CN2C(=O)[C@@H](NC(=O)c2ccc(COc3cc(F)c([C@@H]4c5[nH]c6ccccc6c5C[C@@H](C)N4CC(C)(C)F)c(F)c3)cc2)C(C)(C)C)cc1` [Example 36, (2S,4R)-1-((S)-2-(4-((3,5-Difluoro-4-((1R,3R)-2-(2-fluoro-2-methylpropyl)-3-methyl-2,3,4,9-tetrahydro-1H-pyrido[3,4-b]indol-1-yl)phenoxy)methyl)benzamido)-3,3-dimethylbutanoyl)-4-hydroxy-N-(4-(4-methylthiazol-5-yl)benzyl)pyrrolidine-2-carboxamide] gave an IC50 [1] of 1 nM and a DC50 [2] of 1 nM.

Work on `Cc1ncsc1-c1ccc(CNC(=O)[C@@H]2C[C@@H](O)CN2C(=O)[C@@H](NC(=O)COCCCCCN2CC(Oc3cc(F)c([C@@H]4c5[nH]c6ccccc6c5C[C@@H](C)N4CC(C)(C)F)c(F)c3)C2)C(C)(C)C)cc1` [Example 46, (2S,4R)-1-((S)-2-(2-((5-(3-(3,5-difluoro-4-((1R,3R)-2-(2-fluoro-2-methylpropyl)-3-methyl-2,3,4,9-tetrahydro-1H-pyrido[3,4-b]indol-1-yl)phenoxy)azetidin-1-yl)pentyl)oxy)acetamido)-3,3-dimethylbutanoyl)-4-hydroxy-N-(4-(4-methylthiazol-5-yl)benzyl)pyrrolidine-2-carboxamide] yielded an IC50 [1] of 0.8 nM and a DC50 [2] of 2 nM.

`Cc1ncsc1-c1ccc([C@H](CN(C)C)NC(=O)[C@@H]2C[C@@H](O)CN2C(=O)[C@@H](NC(=O)COCCOCCOCCOc2cc(F)c([C@@H]3c4[nH]c5ccccc5c4C[C@@H](C)N3CC(C)(C)F)c(F)c2)C(C)(C)C)cc1` [Example 104, (2S,4R)-1-[(2S)-2-[[2-[2-[2-[2-[3,5-Difluoro-4-[(1R,3R)-2-(2-fluoro-2-methyl-propyl)-3-methyl-1,3,4,9-tetrahydropyrido[3,4-b]indol-1-yl]phenoxy]ethoxy]ethoxy]ethoxy]acetyl]amino]-3,3-dimethyl-butanoyl]-N-[(1R)-2-(dimethylamino)-1-[4-(4-methylthiazol-5-yl)phenyl]ethyl]-4-hydroxy-pyrrolidine-2-carboxamide] was tested, and the IC50 [1] was 4.6 nM and the DC50 [2] was 54 nM.

`Cc1ncsc1-c1ccc(CNC(=O)[C@@H]2C[C@@H](O)CN2C(=O)[C@@H](NC(=O)CN2CCC3(CC2)CCN(C(=O)COc2cc(F)c([C@@H]4c5[nH]c6ccccc6c5C[C@@H](C)N4CC(C)(C)F)c(F)c2)CC3)C(C)(C)C)cc1` [Example 44, (2S,4R)-1-((S)-2-(2-(9-(2-(3,5-difluoro-4-((R,3R)-2-(2-fluoro-2-methylpropyl)-3-methyl-2,3,4,9-tetrahydro-1H-pyrido[3,4-b]indol-1-yl)phenoxy)acetyl)-3,9-diazaspiro[5.5]undecan-3-yl)acetamido)-3,3-dimethylbutanoyl)-4-hydroxy-N-(4-(4-methylthiazol-5-yl)benzyl)pyrrolidine-2-carboxamide] gave an IC50 [1] of 1.3 nM and a DC50 [2] of 1.8 nM.

In the case of `Cc1ncsc1-c1ccc(CNC(=O)[C@@H]2C[C@@H](O)CN2C(=O)[C@@H](NC(=O)COCCOCCOc2cc(F)c([C@@H]3c4[nH]c5ccccc5c4C[C@@H](C)N3CC(C)(C)F)c(F)c2)C(C)(C)C)cc1` [Example 39, (2S,4R)-1-((S)-2-(2-(2-(2-(3,5-difluoro-4-((R,3R)-2-(2-fluoro-2-methylpropyl)-3-methyl-2,3,4,9-tetrahydro-1H-pyrido[3,4-b]indol-1-yl)phenoxy)ethoxy)ethoxy)acetamido)-3,3-dimethylbutanoyl)-4-hydroxy-N-(4-(4-methylthiazol-5-yl)benzyl)pyrrolidine-2-carboxamide], the IC50 [1] is reported as 0.7 nM and the “ER degradation ≥ 90% at 0.3 μM” value [2] is reported as “•”.

For `Cc1ncsc1-c1ccc(CNC(=O)[C@@H]2C[C@@H](O)CN2C(=O)[C@@H](NC(=O)COCCCOCCCOc2cc(F)c([C@@H]3c4[nH]c5ccccc5c4C[C@@H](C)N3CC(C)(C)F)c(F)c2)C(C)(C)C)cc1` [Example 72, (2S,4R)-1-((S)-2-(2-(3-(3-(3,5-Difluoro-4-((1R,3R)-2-(2-fluoro-2-methylpropyl)-3-methyl-2,3,4,9-tetrahydro-1H-pyrido[3,4-b]indol-1-yl)phenoxy)propoxy)propoxy)acetamido)-3,3-dimethylbutanoyl)-4-hydroxy-N-(4-(4-methylthiazol-5-yl)benzyl)pyrrolidine-2-carboxamide], the IC50 [1] was 0.6 nM and the “ER degradation ≥ 90% at 0.3 μM” value [2] was “••”.
